Data taken from PMC5824847, “Linear peptidomimetics as potent antagonists of Staphylococcus aureus agr quorum sensing” (Scientific Reports, 2018).
Converted amounts (≈) assume the structure as drawn. “Also recorded” adds a separate entry of the source. Square brackets hold non-standard residues; d marks the D form. Peptide text beside a SMILES is read from it. N(1-naphthylmethyl)Gly = O=C(O)CNCc1cccc2ccccc12; N(4-MeBn)Gly = Cc1ccc(CNCC(=O)O)cc1; NBuGly = CCCCNCC(=O)O

Assays:
[1] = system: S. aureus virulence gene expression (agr; RNAIII, hla, spa reporters); experiment: Agar diffusion reporter assay, overall activity on the three reporters; format: cell-based, Staphylococcus aureus; conditions: TSA plates with RNAIII::lacZ, hla::lacZ and spa::lacZ reporters, 10 μg/well (500 μg/ml; 20 μl/well)
Protocol: The reporter assay was conducted as described by Nielsen et al. (2010) using three different lacZ transcriptional reporter strains, PC203, PC322 and SH101F[37]. Test compounds dissolved in H2O or DMSO was added to agar wells at indicated concentrations and solvent only was included as a control. Incubation until blue color appeared in plates varied from 9 h to 48 h. The ability of the peptidomimetics to influence virulence gene expression was observed based on the color change around the wells; a white halo represents downregulation of virulence gene expression, while a blue halo represents upregulation of expression, with the size of the halo being indicative of the degree of interference.

[2] = RP-HPLC retention time (hydrophobicity); format: physicochemical; conditions: analytical RP-HPLC; used by the paper as a measure of hydrophobicity
Protocol: The synthesis of the peptidomimetics was performed as described by Oddo et al. (2015)[51]. According to this, a combination of Fmoc Solid Phase Peptide Synthesis (SPPS) and sub-monomer approach was applied. After the synthesis, the peptidomimetics were purified (>95%) by preparative HPLC and the purity was determined through analytical HPLC. Moreover, the MALDI-TOF-MS was used in order to verify the identity of the peptidomimetics.

[3] = system: 8325-4 and RN10829 WT S. aureus strains; experiment: Minimum Inhibitory Concentration (MIC); format: cell-based, Staphylococcus aureus; conditions: TSB, two-fold dilution series 4 to 256 μg/ml, approx. 5 × 10^5 CFU/ml, 24 hours at 37 °C; lowest concentration with no growth; values identical for 8325-4 and RN10829 WT
Protocol: Overnight cultures (24 h, 37 °C, 200 rpm in TSB) of S. aureus strains were diluted 5000X in fresh TSB and was aliquoted into 96-well microtiter plates with two-fold dilution series of the peptidomimetics ranging from 4 μg/ml to 256 μg/ml (final concentration) to reach an initial cell density of approximately 5 × 10^5 CFU/ml. DMSO was used as control and the plate was incubated for 24 hours at 37 °C. The MICs of the peptidomimetics were recorded as the lowest concentration for which no bacterial growth was observed.
Supplementary Table S2: Minimum Inhibitory Concentration (MIC) of the peptidomimetics tested on 8325-4 and RN10829 WT S. aureus strains (MIC values were identical for both strains, thus are represented here in one column).

SMILES: CCCCN(CC(=O)N(CC(=O)NCC(N)=O)Cc1cccc2ccccc12)C(=O)[C@H](CCCCN)NC(=O)[C@H](CCCCN)NC(=O)CN(Cc1ccc(C)cc1)C(=O)CNCc1cccc2ccccc12 [G7] (H-[N(1-naphthylmethyl)Gly][N(4-MeBn)Gly]KK[NBuGly][N(1-naphthylmethyl)Gly]G-NH2)
- Activity on virulence gene expression (agr modulatory activity), overall [1]: increased activity; also recorded: greatly improved agr-inhibitory activity compared to D3
- Rt (RP-HPLC retention time) [2]: 17.5 min
- MIC [3]: 64 µg/mL (≈ 64 µM)
